Assay results as given in publication PMC10388301, “Exploring the Anticancer Activity of Tamoxifen-Based Metal Complexes Targeting Mitochondria” (Journal of Medicinal Chemistry, 2023).

Target: T1, thioredoxin reductase 1 (TrxR1, cytosolic) (Rattus norvegicus, UniProt O89049)
T1 construct: gene Txnrd1; highly purified enzyme from rat liver
T1 sequence (O89049 1-499): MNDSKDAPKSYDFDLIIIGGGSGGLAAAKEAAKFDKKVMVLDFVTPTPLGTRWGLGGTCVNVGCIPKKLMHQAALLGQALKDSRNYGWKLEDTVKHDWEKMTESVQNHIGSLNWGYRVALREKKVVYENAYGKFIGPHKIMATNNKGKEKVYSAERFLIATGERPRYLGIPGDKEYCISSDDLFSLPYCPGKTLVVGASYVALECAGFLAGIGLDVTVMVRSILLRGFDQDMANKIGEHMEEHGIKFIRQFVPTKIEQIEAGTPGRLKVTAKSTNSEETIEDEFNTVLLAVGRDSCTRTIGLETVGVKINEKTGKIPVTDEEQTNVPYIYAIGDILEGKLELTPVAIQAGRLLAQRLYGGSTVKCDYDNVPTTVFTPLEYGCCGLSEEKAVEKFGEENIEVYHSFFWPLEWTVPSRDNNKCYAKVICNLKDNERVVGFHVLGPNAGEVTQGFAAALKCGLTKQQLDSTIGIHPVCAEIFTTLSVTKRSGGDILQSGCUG
Assay: DTNB reduction assay on purified rat liver TrxR1; BIAM labelling of Sec/Cys residues
Assay type: biochemical

Question: With CCC(=C(c1ccc(OC)cc1)c1ccc(OC)cc1)c1cc[n+]2c(c1)-c1cccc[n+]1[Au-]2([Cl])[Cl].F[P-](F)(F)(F)(F)F [AuTAML] as the molecule, how does the “DTNB reduction assay on purified rat liver TrxR1; BIAM labelling of Sec/Cys resi” value read?
Answer: The value was “a strong inhibition of TrxR1 activity was observed at low nanomolar concentrations of the Au(III) complex”.
